Experimental data reported in the NIST ThermoML archive (doi:10.1016/j.fluid.2006.08.007).
Numbers after ± are expanded uncertainties.

Experiments:
[1] = Liquid, Closed cell (Static) method
[2] = excess molar enthalpy (molar enthalpy of mixing); xn = mol fraction of the nth substance listed; conditions: 298.15 K, 101 kPa, Liquid, Flow calorimetry

SMILES | vapor or sublimation pressure ([1]; 263.15 K) [kPa] | vapor or sublimation pressure ([1]; 273.15 K) [kPa] | vapor or sublimation pressure ([1]; 283.15 K) [kPa] | vapor or sublimation pressure ([1]; 293.15 K) [kPa] | vapor or sublimation pressure ([1]; 298.15 K) [kPa] | vapor or sublimation pressure ([1]; 303.15 K) [kPa] | vapor or sublimation pressure ([1]; 313.15 K) [kPa] | vapor or sublimation pressure ([1]; 323.15 K) [kPa] | vapor or sublimation pressure ([1]; 333.15 K) [kPa] | vapor or sublimation pressure ([1]; 343.15 K) [kPa] | other results
C#CCCCC [1-hexyne] | 2.721 ± 0.013 | 4.893 ± 0.017 | 8.363 ± 0.023 | 13.67 ± 0.032 | 17.22 ± 0.039 | 21.5 ± 0.047 | 32.65 ± 0.066 | 48.09 ± 0.093 | 68.9 ± 0.13 | 96.32 ± 0.17 | –
C#CCCCC [1-hexyne] + COC(C)(C)C | – | – | – | – | – | – | – | – | – | – | excess molar enthalpy ([2]; x1 = 0.1111): -0.0332 ± 0.00239 kcal/mol; excess molar enthalpy ([2]; x1 = 0.2113): -0.0641 ± 0.00239 kcal/mol; excess molar enthalpy ([2]; x1 = 0.3134): -0.0884 ± 0.00263 kcal/mol; excess molar enthalpy ([2]; x1 = 0.389): -0.1 ± 0.00263 kcal/mol; excess molar enthalpy ([2]; x1 = 0.4482): -0.104 ± 0.00263 kcal/mol; excess molar enthalpy ([2]; x1 = 0.5204): -0.102 ± 0.00263 kcal/mol; excess molar enthalpy ([2]; x1 = 0.6206): -0.0901 ± 0.00263 kcal/mol; excess molar enthalpy ([2]; x1 = 0.7263): -0.0712 ± 0.00239 kcal/mol; excess molar enthalpy ([2]; x1 = 0.8179): -0.0526 ± 0.00239 kcal/mol; excess molar enthalpy ([2]; x1 = 0.9011): -0.0339 ± 0.00239 kcal/mol
CC#CCCC [2-hexyne] | 1.393 ± 0.01 | 2.608 ± 0.013 | 4.631 ± 0.016 | 7.845 ± 0.023 | 10.05 ± 0.027 | 12.75 ± 0.033 | 19.99 ± 0.047 | 30.32 ± 0.067 | 44.66 ± 0.095 | 64.09 ± 0.13 | –
CC#CCCC [2-hexyne] + COC(C)(C)C | – | – | – | – | – | – | – | – | – | – | excess molar enthalpy ([2]; x1 = 0.1527): -0.0143 ± 0.00239 kcal/mol; excess molar enthalpy ([2]; x1 = 0.2965): -0.0263 ± 0.00239 kcal/mol; excess molar enthalpy ([2]; x1 = 0.4852): -0.0359 ± 0.00239 kcal/mol; excess molar enthalpy ([2]; x1 = 0.6624): -0.0351 ± 0.00239 kcal/mol; excess molar enthalpy ([2]; x1 = 0.7708): -0.0287 ± 0.00239 kcal/mol; excess molar enthalpy ([2]; x1 = 0.8513): -0.0203 ± 0.00239 kcal/mol
COC(C)(C)C [2-methoxy-2-methylpropane] | 6.252 ± 0.02 | 10.64 ± 0.027 | 17.31 ± 0.039 | 27.06 ± 0.056 | 33.39 ± 0.068 | 40.86 ± 0.082 | 59.81 ± 0.11 | 85.15 ± 0.16 | 118.27 ± 0.21 | 160.66 ± 0.28 | –
